According to paper PMC11831592, “Repurposing Linezolid in Conjunction with Histone Deacetylase Inhibitor Access in the Realm of Glioblastoma Therapies” (Journal of Medicinal Chemistry, 2025):

Columns and labels:
[1] = test system: GBM; set-up: method as in PMID 31505812; settings: GBM patients, vs 12.7 months; cited from earlier work
[2] = target: T1, HDAC6 (Homo sapiens, UniProt Q9UBN7); assay: HDAC enzyme inhibition assay, HDAC6; assay type: biochemical; settings: 10-dose, 3-fold serial dilution starting at 10 μM
T1 construct: purchased Reaction Biology Corporation, Malvern, PA (contract assay service)
T1 sequence (Q9UBN7 1-1215): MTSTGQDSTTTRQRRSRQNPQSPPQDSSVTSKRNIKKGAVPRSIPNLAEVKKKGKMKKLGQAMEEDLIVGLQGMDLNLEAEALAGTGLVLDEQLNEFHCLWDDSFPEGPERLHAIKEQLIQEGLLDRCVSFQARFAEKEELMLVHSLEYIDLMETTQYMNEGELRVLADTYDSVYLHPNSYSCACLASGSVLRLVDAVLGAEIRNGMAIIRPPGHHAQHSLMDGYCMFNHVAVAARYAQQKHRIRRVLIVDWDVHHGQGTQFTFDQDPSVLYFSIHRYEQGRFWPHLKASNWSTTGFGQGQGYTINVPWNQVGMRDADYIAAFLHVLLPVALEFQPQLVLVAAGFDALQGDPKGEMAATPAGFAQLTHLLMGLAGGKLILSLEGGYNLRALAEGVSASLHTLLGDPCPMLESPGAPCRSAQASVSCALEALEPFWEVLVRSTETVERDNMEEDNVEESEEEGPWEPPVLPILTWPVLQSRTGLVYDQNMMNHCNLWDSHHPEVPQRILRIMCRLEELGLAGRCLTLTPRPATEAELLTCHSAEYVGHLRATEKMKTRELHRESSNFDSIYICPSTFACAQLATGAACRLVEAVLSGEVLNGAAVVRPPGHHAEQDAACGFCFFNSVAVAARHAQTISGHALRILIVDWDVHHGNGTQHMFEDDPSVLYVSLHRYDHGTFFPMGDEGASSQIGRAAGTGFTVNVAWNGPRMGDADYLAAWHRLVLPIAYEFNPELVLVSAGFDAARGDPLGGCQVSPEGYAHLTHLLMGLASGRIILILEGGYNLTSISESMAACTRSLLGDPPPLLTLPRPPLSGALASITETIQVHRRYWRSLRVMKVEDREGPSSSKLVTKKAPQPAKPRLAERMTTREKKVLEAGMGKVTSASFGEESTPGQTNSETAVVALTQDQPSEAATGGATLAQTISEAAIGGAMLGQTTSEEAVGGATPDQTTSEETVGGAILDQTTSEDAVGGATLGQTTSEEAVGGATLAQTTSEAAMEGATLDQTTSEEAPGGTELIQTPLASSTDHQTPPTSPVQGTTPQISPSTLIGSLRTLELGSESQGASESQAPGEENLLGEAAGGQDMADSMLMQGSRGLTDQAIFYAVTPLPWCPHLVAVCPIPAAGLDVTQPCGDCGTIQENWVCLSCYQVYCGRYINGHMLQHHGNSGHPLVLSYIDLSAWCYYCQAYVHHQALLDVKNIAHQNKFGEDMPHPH
Procedure: (§1) Enzyme inhibition assays were performed by the Reaction Biology Corporation, Malvern, PA (http://www.reactionbiology.com).

[3] = test system: PT#3-R TMZ-resistant GBM cell line; assay: cells; assay type: cell-based; settings: MTT; for IC50: Homo sapiens, 72 h
Procedure: The cytotoxic effects of these compounds were assessed using the MTT assay (Table 1 and Supporting Information IV).
MTT assay was employed to evaluate the cytotoxicity of the synthesized compound against resistant GBM cells. The MTT (3-(4,5-dimethylthiazol-2-yl)-2,5-diphenyltetrazolium bromide, catalog no. AM0818-0005) powder was purchased from BIONOVAS (Ontario, Canada). The MTT was prepared at 10 mg/mL stock with ultrapure water and then stored at −20 °C. […] Before the experiment, the MTT stock was 10-fold diluted with the culture medium and then incubated with cells for 30 min. After the incubation, the MTT medium was discarded and added 300 μL of dimethyl sulfoxide (DMSO, cat. no. D2650, Sigma-Aldrich, MO, USA) to dissolve the cells.

[4] = target: T2, HDAC1 (Homo sapiens, UniProt Q13547); assay: HDAC enzyme inhibition assay, HDAC1; assay type: biochemical; settings: 10-dose, 3-fold serial dilution starting at 10 μM
T2 construct: purchased Reaction Biology Corporation, Malvern, PA (contract assay service)
Procedure: as §1

[5] = target: T3, HDAC2 (Homo sapiens, UniProt Q92769); assay: HDAC enzyme inhibition assay, HDAC2; assay type: biochemical; settings: 10-dose, 3-fold serial dilution starting at 10 μM
T3 construct: purchased Reaction Biology Corporation, Malvern, PA (contract assay service)
Procedure: as §1

[6] = target: T4, HDAC8 (Homo sapiens, UniProt Q9BY41); assay: HDAC enzyme inhibition assay, HDAC8; assay type: biochemical; settings: 10-dose, 3-fold serial dilution starting at 10 μM
T4 construct: purchased Reaction Biology Corporation, Malvern, PA (contract assay service)
T4 sequence (Q9BY41 1-377): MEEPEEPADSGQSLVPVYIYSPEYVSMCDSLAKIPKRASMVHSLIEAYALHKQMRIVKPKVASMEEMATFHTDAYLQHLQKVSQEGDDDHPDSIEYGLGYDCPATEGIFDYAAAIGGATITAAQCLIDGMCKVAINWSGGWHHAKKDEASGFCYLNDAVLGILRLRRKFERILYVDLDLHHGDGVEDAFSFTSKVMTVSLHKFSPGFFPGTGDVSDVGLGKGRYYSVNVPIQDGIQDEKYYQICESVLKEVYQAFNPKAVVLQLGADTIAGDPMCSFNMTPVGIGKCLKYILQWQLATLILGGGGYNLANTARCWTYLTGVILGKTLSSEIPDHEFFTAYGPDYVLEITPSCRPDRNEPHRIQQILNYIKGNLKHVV
Procedure: as §1

[7] = test system: TMZ-resistant GBM cell lines A172R and PT#3R; assay: MTT cytotoxicity assay, TMZ-resistant GBM lines (statement in words); assay type: cell-based; settings: 0 to 80 μM, 72 h
Procedure: (§2) We utilized linezolid as the structural foundation to confirm the cytotoxicity of linezolid-conjugated functional domains against glioblastoma (GBM). We combined it with the binding structures of anti-histone deacetylases (HDACs) (denoted as compounds 1–5 and 11–14), antitubulin (compound 6), anticyclooxygenase (COX) (compound 7), and anti-heat shock protein 90 (Hsp90) (compounds 8–10). These constructs were then administered to TMZ-resistant GBM cell lines A172R and PT#3R at concentrations ranging from 0 to 80 μM over 72 h. The cytotoxic effects of these compounds were assessed using the MTT assay (Table 1 and Supporting Information IV). […] Given the remarkable cytotoxicity of compound 1 on both A172-R and PT#3-R TMZ-resistant cells, this study subsequently focused on compound 1 for further in-depth investigation and mechanistic exploration. To validate that the cytotoxic effect of compound 1 on GBM is not attributed to linezolid alone, we separately treated the TMZ-resistant GBM cell line PT#3-R with compound 1 and linezolid. […] This confirms that the cytotoxicity of compound 1 against GBM is primarily attributable to the inhibitory structure of linezolid-conjugated HDAC (Figure 2A). Furthermore, we compared the cytotoxic effects of compound 1 on various wild-type brain tumor cell lines, including U87MG, PT#3, LN229 GBM cells, and CT-2A mouse astrocyte cell line as well as TMZ-resistant variants cell lines, including U87MG-R, PT#3-R, CT-2A-R, and T98G (MGMT-positive). […] Additionally, we further confirmed the efficacy of compound 1 in GBM treatment.
MTT assay was employed to evaluate the cytotoxicity of the synthesized compound against resistant GBM cells. The MTT (3-(4,5-dimethylthiazol-2-yl)-2,5-diphenyltetrazolium bromide, catalog no. AM0818-0005) powder was purchased from BIONOVAS (Ontario, Canada). The MTT was prepared at 10 mg/mL stock with ultrapure water and then stored at −20 °C. […] Finally, 100 μL of the mixture was transferred to measure the OD 595 nm absorbance.

[8] = test system: A172-R TMZ-resistant GBM cell line; assay: MTT cytotoxicity assay, A172-R; assay type: cell-based; settings: Homo sapiens, 72 h
Procedure: as §2
MTT assay was employed to evaluate the cytotoxicity of the synthesized compound against resistant GBM cells. The MTT (3-(4,5-dimethylthiazol-2-yl)-2,5-diphenyltetrazolium bromide, catalog no. AM0818-0005) powder was purchased from BIONOVAS (Ontario, Canada). The MTT was prepared at 10 mg/mL stock with ultrapure water and then stored at −20 °C. All cells were seeded 2.5 × 10^4 per well in the 24-well plate for 24 h, followed by treating at different concentrations of compounds for 72 h. Before the experiment, the MTT stock was 10-fold diluted with the culture medium and then incubated with cells for 30 min. After the incubation, the MTT medium was discarded and added 300 μL of dimethyl sulfoxide (DMSO, cat. no. D2650, Sigma-Aldrich, MO, USA) to dissolve the cells. Finally, 100 μL of the mixture was transferred to measure the OD 595 nm absorbance.

[9] = set-up: method as in PMID 36921275; settings: meningitis patients; cited from earlier work
[10] = within 5–7 h; cited from earlier work

T3 sequence (Q92769 whole entry): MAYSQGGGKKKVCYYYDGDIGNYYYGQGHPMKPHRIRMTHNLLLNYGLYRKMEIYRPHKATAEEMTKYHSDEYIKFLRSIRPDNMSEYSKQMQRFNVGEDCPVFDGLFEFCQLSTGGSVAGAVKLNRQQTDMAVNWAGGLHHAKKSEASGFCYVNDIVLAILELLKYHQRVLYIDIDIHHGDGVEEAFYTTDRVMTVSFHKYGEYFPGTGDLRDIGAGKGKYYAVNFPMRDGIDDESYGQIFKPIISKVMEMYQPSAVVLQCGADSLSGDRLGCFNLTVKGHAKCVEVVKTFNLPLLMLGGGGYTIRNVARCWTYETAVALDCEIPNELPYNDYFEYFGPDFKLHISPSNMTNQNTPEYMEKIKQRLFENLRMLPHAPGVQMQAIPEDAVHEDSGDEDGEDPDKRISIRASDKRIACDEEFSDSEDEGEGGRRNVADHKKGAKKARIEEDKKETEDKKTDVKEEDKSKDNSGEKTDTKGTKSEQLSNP
T2 sequence (Q13547 whole entry): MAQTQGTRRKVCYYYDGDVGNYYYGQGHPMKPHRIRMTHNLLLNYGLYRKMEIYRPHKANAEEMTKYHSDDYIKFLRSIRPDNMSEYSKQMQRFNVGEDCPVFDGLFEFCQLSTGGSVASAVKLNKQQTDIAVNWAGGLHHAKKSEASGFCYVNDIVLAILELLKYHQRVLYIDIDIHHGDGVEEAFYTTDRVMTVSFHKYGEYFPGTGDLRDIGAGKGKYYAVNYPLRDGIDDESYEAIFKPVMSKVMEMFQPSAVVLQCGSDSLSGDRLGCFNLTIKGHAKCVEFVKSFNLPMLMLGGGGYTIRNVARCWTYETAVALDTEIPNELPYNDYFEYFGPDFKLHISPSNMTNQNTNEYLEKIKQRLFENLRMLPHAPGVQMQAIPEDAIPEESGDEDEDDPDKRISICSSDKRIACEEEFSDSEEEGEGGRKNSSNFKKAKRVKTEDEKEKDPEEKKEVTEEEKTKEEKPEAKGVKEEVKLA

Row | IC50 [2] | IC50 [4] | IC50 [5] | IC50 [6] | Compound | IC50 [3] | IC50 [8] | also measured
1 |  |  |  |  | Cn1nnc2c(C(N)=O)ncn2c1=O [TMZ, temozolomide] |  |  | overall survival [1]: 21.7 months
2 | 0.304 µM | 3.37 µM | 6.43 µM | 1.11 µM | O=C(CCCCCCC(=O)NC[C@H]1CN(c2ccc(N3CCOCC3)c(F)c2)C(=O)O1)NO [compound 2, (S)-N1-((3-(3-Fluoro-4-morpholinophenyl)-2-oxooxazolidin-5-yl)methyl)-N8-hydroxyoctanediamide] | 164 ± 41.5 µM |  | 
3 | 0.061 µM | > 10 µM | > 10 µM | 0.938 µM | O=C(NO)c1ccc(CNC[C@H]2CN(c3ccc(N4CCOCC4)c(F)c3)C(=O)O2)cc1 [compound 3, (S)-4-((((3-(3-Fluoro-4-morpholinophenyl)-2-oxooxazolidin-5-yl)methyl)amin-o)methyl)-N-hydroxybenzamide] | 114 ± 20.8 µM |  | 
4 |  | 0.979 µM | 2.02 µM |  | Nc1ccccc1NC(=O)c1ccc(CNC[C@H]2CN(c3ccc(N4CCOCC4)c(F)c3)C(=O)O2)cc1 [compound 4, (S)-N-(2-Aminophenyl)-4-((((3-(3-fluoro-4-morpholinophenyl)-2-oxooxazolidin-5-yl)methyl)amino)methyl)benzamide] | 41.4 ± 5.01 µM | 19 ± 2.53 µM | cytotoxicity in TMZ-resistant GBM [7]: exhibited the capacity to induce cytotoxicity
5 | 0.095 µM | 0.735 µM | 1.66 µM | 0.803 µM | O=C(/C=C/c1cccc(S(=O)(=O)NC[C@H]2CN(c3ccc(N4CCOCC4)c(F)c3)C(=O)O2)c1)NO [compound 5, (R,E)-3-(3-(N-((3-(3-Fluoro-4-morpholinophenyl)-2-oxooxazolidin-5-yl)methyl)su-lfamoyl)phenyl)-N-hydroxyacrylamide] | 124 ± 17.5 µM |  | 
6 |  |  |  |  | O=C(NC[C@H]1CN(c2ccc(N3CCOCC3)c(F)c2)C(=O)O1)c1cc(Cl)ccc1O [compound 7, (S)-5-Chloro-N-((3-(3-fluoro-4-morpholinophenyl)-2-oxooxazolidin-5-yl)methyl)-2-hydroxybenzamide] | 52.1 ± 6.26 µM | 224 ± 80.3 µM | 
7 |  |  |  |  | CC(C)c1cc(C(=O)NC[C@H]2CN(c3ccc(N4CCOCC4)c(F)c3)C(=O)O2)c(O)cc1O [compound 8, (S)-N-((3-(3-Fluoro-4-morpholinophenyl)-2-oxooxazolidin-5-yl)methyl)-2,4-dihydroxy-5-isopropylbenzamide] | 58 ± 6.23 µM | 65.2 ± 11.2 µM | 
8 |  |  |  |  | CC(C)c1cc(C(=O)N(C)C[C@H]2CN(c3ccc(N4CCOCC4)c(F)c3)C(=O)O2)c(O)cc1O [compound 9, (S)-N-((3-(3-Fluoro-4-morpholinophenyl)-2-oxooxazolidin-5-yl)methyl)-2,4-dihydroxy-5-isopropyl-N-methylbenzamide] | 15.3 ± 2.1 µM | 35.6 ± 4.64 µM | cytotoxicity in TMZ-resistant GBM [7]: exhibited the capacity to induce cytotoxicity
9 |  |  |  |  | CCN(C[C@H]1CN(c2ccc(N3CCOCC3)c(F)c2)C(=O)O1)C(=O)c1cc(C(C)C)c(O)cc1O [compound 10, (S)-N-((3-(3-Fluoro-4-morpholinophenyl)-2-oxooxazolidin-5-yl)methyl)-2,4-dihydroxy-5-isopropyl-N-ethylbenzamide] | 48.8 ± 4.77 µM | 80.6 ± 9.99 µM | 
10 |  |  |  |  | CC(=O)NC[C@H]1CN(c2ccc(N3CCOCC3)c(F)c2)C(=O)O1 [linezolid, (S)-N-((3-(3-Fluoro-4-morpholinophenyl)-2-oxooxazolidin-5-yl)methyl)acetamide] |  |  | cytotoxicity in resistant GBM cells ([3]; 80 to 100 μM): did not induce cytotoxicity; penetration between blood and cerebrospinal fluid [9]: more than 70%; excreted in its original form in urine [10]: 30%
